The assay deals with porcine pancreatic elastase (Sus scrofa, UniProt P00772). Put plainly: Elastase inhibitory activity of peptides (AAApNA hydrolysis; IC50, Ki, residual activity). It counts as biochemical. The note with it: for IC50 / Residual activity of elastase: elastase 0.5 μM, AAApNA 1 mM. In short, it runs like this: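 Porcine pancreatic elastase, 0.5 μM final, was preincubated with peptide for 10 min at 37° C in 20 mM CaCl2, 50 mM Tris-HCl pH 8.0. AAApNA (1 mM final) was then added for 60 min and A405 read. Residual activity gave IC50, converted to Ki via IC50/(1+S/Km) using measured Km.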
Sequence of porcine pancreatic elastase (P00772 27-266): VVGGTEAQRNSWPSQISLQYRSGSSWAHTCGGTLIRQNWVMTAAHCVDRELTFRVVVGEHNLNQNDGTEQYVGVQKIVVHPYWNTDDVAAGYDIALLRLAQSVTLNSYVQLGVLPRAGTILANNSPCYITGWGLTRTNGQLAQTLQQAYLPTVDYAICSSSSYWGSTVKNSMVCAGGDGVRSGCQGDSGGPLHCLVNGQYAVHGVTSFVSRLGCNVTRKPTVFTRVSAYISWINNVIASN

Read-outs that look alike come from different tables or passages of the source. Bridge positions count the residues as written; N and C are the ends. Square brackets hold non-standard residues; d marks the D form. Peptide text beside a SMILES is read from it. Hyp = O=C(O)[C@@H]1C[C@@H](O)CN1 Bounds are passed on as bounds.

The results in this text go back to patent publication US20230416329A1, “A PEPTIDE WITH DISULFIDE BONDS AND INHIBITORY ACTIVITY AGAINST SERINE PROTEASES, DERIVED HYBRID PEPTIDES THEREOF, AND USES THEREOF” (INSTITUTE OF MATERIA MEDICA , CHINESE ACADEMY OF MEDICAL …, priority 2020, published 2023).

For orientation: IC50 means the point on the concentration scale where inhibition reaches its midpoint. A high value points to weaker potency in that assay. On to `CC[C@H](C)[C@H](N)C(=O)N[C@H]1CSSC[C@@H](C(=O)N[C@H](C(=O)O)C(C)C)NC(=O)[C@H](CCC(N)=O)NC(=O)[C@H](C)NC(=O)[C@@H]2CCCN2C(=O)[C@H]([C@@H](C)CC)NC(=O)[C@H](CO)NC(=O)[C@H](CC(C)C)NC(=O)[C@H]([C@@H](C)O)NC1=O` [EC13] (H-ICTLSIPAQCV-OH; disulfide 2-10; N-terminus and C-terminus assumed), for which the half-maximal inhibitory concentration (IC50) was > 50000 nM.
The same measure, in the same setting: the same measure for `CC[C@H](C)[C@@H]1NC(=O)CNC(=O)[C@@H](N)CSSC[C@@H](C(=O)N[C@@H](CCC(N)=O)C(=O)O)NC(=O)[C@H]([C@@H](C)CC)NC(=O)[C@@H]2CCCN2C(=O)[C@@H]2CCCN2C(=O)[C@H]([C@@H](C)CC)NC(=O)[C@H](CO)NC(=O)[C@H](C)NC(=O)[C@H]([C@@H](C)O)NC(=O)[C@H](CO)NC1=O` [EC34] (H-CGISTASIPPICQ-OH; disulfide 1-12): > 50000 nM; for `CC[C@H](C)[C@@H]1NC(=O)[C@@H]2CCCN2C(=O)[C@@H]2CCCN2C(=O)[C@H]([C@@H](C)CC)NC(=O)[C@H](CO)NC(=O)[C@H](C)NC(=O)[C@H]([C@@H](C)O)NC(=O)[C@H](CCC(=O)O)NC(=O)[C@H](CCCNC(=N)N)NC(=O)CNC(=O)[C@@H](N)CSSC[C@@H](C(=O)N[C@@H](CCC(N)=O)C(=O)O)NC1=O` [EC8] (H-CGRETASIPPICQ-OH; disulfide 1-12; N-terminus and C-terminus assumed): > 50000 nM.
As a reminder, the Ki is a dissociation constant, usually derived from enzyme kinetics or from competition with a known ligand. For `CC[C@H](C)[C@@H]1NC(=O)[C@H](CO)NC(=O)[C@H](C)NC(=O)[C@H]([C@@H](C)O)NC(=O)[C@@H](NC(=O)[C@@H](N)CC(C)C)CSSC[C@@H](C(=O)N[C@@H](Cc2ccc(O)cc2)C(=O)O)NC(=O)[C@H](CCC(N)=O)NC(=O)[C@@H]2CCCN2C(=O)[C@@H]2CCCN2C1=O` [EC1] (H-LCTASIPPQCY-OH; disulfide 2-10; C-terminus assumed), the “inhibitory activity against elastase (in words)” value is “better inhibitory activity against Elastase”. Further, the Ki (read-out: Ki) is 330 nM.
As for `CC[C@H](C)[C@@H]1NC(=O)[C@@H]2CCCN2C(=O)[C@@H]2CCCN2C(=O)[C@H]([C@@H](C)CC)NC(=O)[C@H](CO)NC(=O)[C@H](C)NC(=O)[C@H]([C@@H](C)O)NC(=O)[C@H](C)NC(=O)[C@H](CC(C)C)NC(=O)CNC(=O)CNC(=O)[C@@H](N)CSSC[C@@H](C(=O)N[C@@H](CCC(N)=O)C(=O)O)NC1=O` [EC16] (H-CGGLATASIPPICQ-OH; disulfide 1-13; N-terminus and C-terminus assumed), the IC50 was > 50000 nM.
In the case of `CC[C@H](C)[C@@H]1NC(=O)[C@H](CO)NC(=O)[C@H](C)NC(=O)[C@H]([C@@H](C)O)NC(=O)[C@@H](NC(=O)[C@@H](N)CC(C)C)CSSC[C@@H](C(=O)N[C@@H](CCC(N)=O)C(=O)O)NC(=O)[C@H](CCC(N)=O)NC(=O)[C@@H]2CCCN2C(=O)[C@@H]2CCCN2C1=O` [EC18] (H-LCTASIPPQCQ-OH; disulfide 2-10; N-terminus and C-terminus assumed), the “Residual activity of elastase” value is on record as 99.2 ± 2.0% (peptide 0.001 μM); 100.6 ± 1.5% (peptide 0.01 μM); 97.0 ± 4.0% (peptide 0.1 μM); 100.2 ± 2.0% (peptide 0.2 μM); 90.3 ± 0.5% (peptide 0.4 μM); 73.5 ± 4.8% (peptide 0.6 μM). For the same compound, the “Residual activity of elastase” value is, setting by setting: (peptide 1 μM) 49.4 ± 3.3%; (peptide 6 μM) 8.4 ± 0.4%; (peptide 10 μM) 3.6 ± 0.5%; (peptide 100 μM) 0.1 ± 0.0%.
For the compound `CC[C@H](C)[C@@H]1NC(=O)[C@@H]2CCCN2C(=O)[C@@H]2CCCN2C(=O)[C@H]([C@@H](C)CC)NC(=O)[C@H](CO)NC(=O)[C@H](C)NC(=O)[C@H]([C@@H](C)O)NC(=O)[C@@H](NC(=O)[C@@H](N)Cc2ccc(O)cc2)CSSC[C@@H](C(=O)N[C@@H](CCC(N)=O)C(=O)O)NC1=O` [EC29] (H-YCTASIPPICQ-OH; disulfide 2-10; C-terminus assumed), the “Residual activity of elastase” value is, setting by setting: (peptide 0.001 μM) 105.9 ± 2.2%; (peptide 0.01 μM) 102.0 ± 2.9%; (peptide 0.1 μM) 92.6 ± 2.7%; (peptide 0.5 μM) 72.7 ± 4.4%; (peptide 1 μM) 47.5 ± 0.7%; (peptide 2 μM) 28.5 ± 0.4%. Moreover, the “Residual activity of elastase” value (peptide 6 μM) is on record as 8.9 ± 0.4%, the “Residual activity of elastase” value (peptide 10 μM) stood at 5.9 ± 0.4%, the “Residual activity of elastase” value (peptide 100 μM) is 0.1 ± 0.1% and the “Residual activity of elastase” value (peptide 1000 μM) was 0.1 ± 0.0%.
Turning to `CC[C@H](C)[C@@H]1NC(=O)[C@@H]2CCCN2C(=O)[C@@H]2CCCN2C(=O)[C@H]([C@@H](C)CC)NC(=O)[C@H](CO)NC(=O)[C@H](C)NC(=O)[C@H]([C@@H](C)O)NC(=O)[C@@H](NC(=O)[C@@H](N)CC(C)C)CSSC[C@@H](C(=O)N[C@@H](CCC(N)=O)C(=O)O)NC1=O` [EC12] (H-LCTASIPPICQ-OH; disulfide 2-10; N-terminus and C-terminus assumed), the “inhibitory activity against elastase (in words)” value is “better inhibitory activity against Elastase” and the IC50 turned out to be 400 nM. Further, where the note is “peptide 0.001 μM”, the “Residual activity of elastase” value is given as 98.8 ± 1.1%. For the same compound, under “peptide 0.01 μM”, the “Residual activity of elastase” value was found to be 97.8 ± 1.0%. The “Residual activity of elastase” value (peptide 0.06 μM) is on record as 98.2 ± 2.1%. In addition, the “Residual activity of elastase” value (peptide 0.25 μM) came out at 72.2 ± 5.9%. Under “peptide 0.3 μM”, the “Residual activity of elastase” value worked out at 59.9 ± 3.2%. The “Residual activity of elastase” value (peptide 0.75 μM) worked out at 25.1 ± 3.6%. The “Residual activity of elastase” value (peptide 1 μM) is recorded as 12.7 ± 1.0%. Moreover, the “Residual activity of elastase” value (peptide 10 μM) is listed as 1.3 ± 0.1%. The “Residual activity of elastase” value (peptide 100 μM) stood at 0.2 ± 0.0%. Also, the “Residual activity of elastase” value (peptide 1000 μM) is reported as 0.3 ± 0.0%. Further, the Ki (read-out: Ki against elastase) was determined as 110 nM.
As to `CC[C@H](C)[C@@H]1NC(=O)CNC(=O)[C@@H](N)CSSC[C@@H](C(=O)N[C@@H](CCC(N)=O)C(=O)O)NC(=O)[C@H]([C@@H](C)CC)NC(=O)[C@@H]2CCCN2C(=O)[C@@H]2CCCN2C(=O)[C@H]([C@@H](C)CC)NC(=O)[C@H](CO)NC(=O)[C@H](C)NC(=O)[C@H]([C@@H](C)O)NC(=O)[C@H](C)NC1=O` [EC30] (H-CGIATASIPPICQ-OH; disulfide 1-12), the IC50 was > 50000 nM.
Still for that read-out and setting: the value for `CC[C@H](C)[C@@H]1NC(=O)[C@H](CO)NC(=O)[C@H](C)NC(=O)[C@H]([C@@H](C)O)NC(=O)[C@H](CCC(=O)O)NC(=O)[C@H](CCCNC(=N)N)NC(=O)CNC(=O)[C@@H](N)CSSC[C@@H](C(=O)O)NC(=O)CNC(=O)[C@H](CCCCN)NC(=O)[C@H](CCC(N)=O)NC(=O)[C@@H]2CCCN2C(=O)[C@@H]2CCCN2C1=O` [EC11] (H-CGRETASIPPQKGC-OH; disulfide 1-14; N-terminus and C-terminus assumed) was > 50000 nM; that for `CC[C@H](C)[C@@H]1NC(=O)[C@H](CO)NC(=O)[C@H](C)NC(=O)[C@H]([C@@H](C)O)NC(=O)[C@H](C)NC(=O)[C@H](CC(C)C)NC(=O)CNC(=O)[C@@H](N)CSSC[C@@H](C(=O)N[C@@H](Cc2ccc(O)cc2)C(=O)O)NC(=O)[C@H](CCC(N)=O)NC(=O)[C@@H]2CCCN2C(=O)[C@@H]2CCCN2C1=O` [EC3] (H-CGLATASIPPQCY-OH; disulfide 1-12; N-terminus and C-terminus assumed) was > 50000 nM.
Same read-out and setting: the value for `CC(C)C[C@H](N)C(=O)N[C@H]1CSSC[C@@H](C(=O)N[C@@H](CCCNC(=N)N)C(=O)O)NC(=O)[C@H]([C@@H](C)O)NC(=O)[C@@H]2CCCN2C(=O)[C@@H]2CCCN2C(=O)[C@H](CC(N)=O)NC(=O)[C@H](CO)NC(=O)[C@H](C)NC(=O)[C@H]([C@@H](C)O)NC1=O` [EC28] (H-LCTASNPPTCR-OH; disulfide 2-10) was > 50000 nM.
The compound `CC[C@H](C)[C@H](N)C(=O)N[C@H]1CSSC[C@@H](C(=O)N[C@@H](CCC(N)=O)C(=O)O)NC(=O)[C@H]([C@@H](C)CC)NC(=O)[C@@H]2CCCN2C(=O)[C@@H]2C[C@@H](O)CN2C(=O)[C@H]([C@@H](C)CC)NC(=O)[C@H](CO)NC(=O)[C@H](C)NC(=O)[C@H]([C@@H](C)O)NC1=O` [EC47, Ile-Cys-Thr-Ala-Ser-Ile-Hyp-Pro-Ile-Cys-Gln] (H-ICTASI[Hyp]PICQ-OH; disulfide 2-10; C-terminus assumed) displayed an IC50 of 400 nM. In addition, the Ki (read-out: Ki) worked out at 110 nM.
For `CC[C@H](C)[C@H](N)C(=O)N[C@H]1CSSC[C@@H](C(=O)N[C@@H](CCC(N)=O)C(=O)O)NC(=O)[C@H](CCC(N)=O)NC(=O)[C@@H]2CCCN2C(=O)[C@@H]2CCCN2C(=O)[C@H]([C@@H](C)CC)NC(=O)[C@H](CO)NC(=O)[C@H](C)NC(=O)[C@H]([C@@H](C)O)NC1=O` [EC19] (H-ICTASIPPQCQ-OH; disulfide 2-10; N-terminus and C-terminus assumed), the “Residual activity of elastase” value reads like this: (peptide 0.001 μM) 99.9 ± 0.5%; (peptide 0.01 μM) 99.4 ± 0.1%; (peptide 0.1 μM) 96.1 ± 0.9%; (peptide 0.5 μM) 81.2 ± 4.1%; (peptide 1 μM) 52.1 ± 1.8%; (peptide 2 μM) 29.8 ± 0.8%. The “Residual activity of elastase” value is, setting by setting: (peptide 4 μM) 15.5 ± 0.3%; (peptide 10 μM) 5.4 ± 0.3%; (peptide 100 μM) 0.2 ± 0.1%; (peptide 1000 μM) 0.0 ± 0.0%. Further, for the setting “read-out: Ki”, the Ki turned out to be 330 nM.
